Experimental data reported in patent US8637252B2, “Methods and compositions for determining altered susceptibility of HIV-1 to anti-HIV drugs” (Monogram Biosciences, Inc., priority 2011, dated 2014).

Legend:
[1] = tested on: HIV-1 (PRRT-RHIN segment of patient sample 62); assay: phenotypic drug resistance test, PRRT-RHIN amplicon of sample 62; type: cell-based
Source text: Patient-derived segment(s) corresponding to the entire pol gene, encoding HIV protease, reverse transcriptase (including RNAse H), and integrase (hereinafter “POL”), the portion of pol encoding amino acids 1-305 of reverse transcriptase (hereinafter “PR-RT”), the portion of pol encoding amino acids 319-440 of reverse transcriptase (including RNAse H), and integrase (hereinafter “RHIN”), were amplified by the reverse transcription-polymerase chain reaction method (RT-PCR) using viral RNA isolated from viral particles present in the plasma or serum of HIV-infected individuals as described below. The portion of pol encoding protease, amino acids 1-531 of reverse transcriptase (including RNase H) (hereinafter “PRRT-RH”), or the portion of pol encoding protease, reverse transcriptase (including RNAse H) and integrase (hereinafter “PRRT-RHIN”), were assembled from amplicons described above by standard recombinant DNA techniques involving a KpnI restriction site at amino acid 400 or a Pin A1 site at amino acid 315.
Drug resistance tests performed with test vectors were carried out using packaging host and target host cells consisting of the human embryonic kidney cell line 293.
Resistance tests were carried out with the RTV libraries by using viral particles comprising the RTV libraries to infect a host cell in which the expression of the indicator gene is measured. The amount of indicator gene (luciferase) activity detected in infected cells is used as a direct measure of “infectivity,” i.e., the ability of the virus to complete a single round of replication. Thus, drug resistance or sensitivity can be determined by plotting the amount of luciferase activity produced by patient derived viruses in the presence of varying concentrations of the antiviral drug. By identifying the concentration of drug at which luciferase activity is half-maximum, the IC50 of the virus from which patient-derived segment(s) were obtained for the antiretroviral agent can be determined. […]

[2] = tested on: HIV-1 patient-derived test vectors with site-directed reverse transcriptase mutations; assay: phenotypic drug resistance test, site-directed reverse transcriptase mutants in patient backgrounds; type: cell-based
Procedure: In addition, using conventional technique, the T369I mutation was introduced into a resistance test vector comprising PR-RT segment derived from patient sample 62, which comprises mutations A62V, Q102K, K103N, K122E, D123N, C162S, D177E, 1178L, M184V, T200A, Q207E, T215Y, P243S, V245Q, A272P and R277K in reverse transcriptase. Among these mutations, K103N correlates with resistance to a number of NNRTIs, including NVP. This patient sample was tested for resistance to an NNRTI using the methods described above.
(§1) To further analyze the effects of N348I, T369I, and E399D on NNRTI resistance, an additional series of site directed mutants was constructed in non-wild-type backgrounds. In particular, site-directed mutants comprising the N348I, T369I, or E399D mutation were constructed in POL-containing test vectors obtained from three different patient samples. Results from these experiments are presented as FIG. 11.
as §1, with “on AZT” for “on NNRTI”, “the N3481,” for “the N348I,”, “from two” for “from three”, “samples.” for “samples. Results from these experiments are presented as FIG. 11.”

[3] = E399D mutation, patient 50 background
[4] = E399D mutation, patient 58 or patient 62 background
[5] = N348I and T369I mutations, POL test vectors of patients 50, 58, 62

Row | SMILES | Fold Change in IC50, PRRT-RHIN amplicon [1] [fold] | change in resistance on addition of mutation [2, 3] | change in resistance on addition of mutation [2, 4] | change in resistance on addition of mutation [2, 5] | resistance of test vector ([2]; T369I introduced into PR-RT segment of patient sample 62 (contains K103N))
1 | CC(C)Nc1cccnc1N1CCN(C(=O)c2cc3cc(NS(C)(=O)=O)ccc3[nH]2)CC1 [DLV, delavirdine] | 140.00 | increased | not | increased resistance | 
2 | O=C1Nc2ccc(Cl)cc2[C@@](C#CC2CC2)(C(F)(F)F)O1 [EFV, efavirenz] | 202.00 | increased | not | increased resistance | 
3 | Cc1ccnc2c1NC(=O)c1cccnc1N2C1CC1 [NVP, nevirapine] | 400.00 | increased | not | increased resistance | enhanced resistance
